Results reported in PubChem BioAssay AID1918957 (Molecular Pharmacology Branch, DTP, NCI, 2023).

System: NCI-H1876 complex spheroid viability
Experiment: Anticancer human tumor NCI-H1876 cell line growth inhibition [LSD1];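 also: spheroids exposed to compounds for one week before readout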;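 as to viability, T/C: 100% = DMSO vehicle-treated spheroids so lower means fewer viable cells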
Conditions: for IC50: curve of first compound; for viability, T/C: stronger effect = lower value
Outline: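 Drug combinations with the LSD1 inhibitor iadademstat tested on tumor cells co-cultured as spheroids with endothelial cells and mesenchymal stem cells. Concentrations descended in half-log increments from clinical Cmax or 10 microM.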

[1] = second compound 0.1 µM, first compound 0.0316 µM
[2] = second compound 0.1 µM, first compound 0.1 µM
[3] = second compound 0.1 µM, first compound 0.316 µM
[4] = second compound 0.1 µM, first compound 1 µM
[5] = second compound 0.1 µM, first compound 3.16 µM
[6] = second compound 0.1 µM, first compound 10 µM
[7] = second compound 0.316 µM, first compound 0.0316 µM
[8] = second compound 0.316 µM, first compound 0.1 µM
[9] = second compound 0.316 µM, first compound 0.316 µM
[10] = second compound 0.316 µM, first compound 1 µM
[11] = second compound 0.316 µM, first compound 3.16 µM
[12] = second compound 0.316 µM, first compound 10 µM
[13] = second compound 1 µM, first compound 0.0316 µM
[14] = second compound 1 µM, first compound 0.1 µM
[15] = second compound 1 µM, first compound 0.316 µM
[16] = second compound 1 µM, first compound 1 µM
[17] = second compound 1 µM, first compound 3.16 µM
[18] = second compound 1 µM, first compound 10 µM
[19] = second compound 3.16 µM, first compound 0.0316 µM
[20] = second compound 3.16 µM, first compound 0.1 µM
[21] = second compound 3.16 µM, first compound 0.316 µM
[22] = second compound 3.16 µM, first compound 1 µM
[23] = second compound 3.16 µM, first compound 3.16 µM
[24] = second compound 3.16 µM, first compound 10 µM
[25] = second compound 10 µM, first compound 0.0316 µM
[26] = second compound 10 µM, first compound 0.1 µM
[27] = second compound 10 µM, first compound 0.316 µM
[28] = second compound 10 µM, first compound 1 µM
[29] = second compound 10 µM, first compound 3.16 µM
[30] = second compound 10 µM, first compound 10 µM
[31] = second compound 0.1 µM, first compound 0.00949 µM
[32] = second compound 0.1 µM, first compound 0.03 µM
[33] = second compound 0.1 µM, first compound 0.0949 µM
[34] = second compound 0.1 µM, first compound 0.3 µM
[35] = second compound 0.316 µM, first compound 0.00949 µM
[36] = second compound 0.316 µM, first compound 0.03 µM
[37] = second compound 0.316 µM, first compound 0.0949 µM
[38] = second compound 0.316 µM, first compound 0.3 µM
[39] = second compound 1 µM, first compound 0.00949 µM
[40] = second compound 1 µM, first compound 0.03 µM
[41] = second compound 1 µM, first compound 0.0949 µM
[42] = second compound 1 µM, first compound 0.3 µM
[43] = second compound 3.16 µM, first compound 0.00949 µM
[44] = second compound 3.16 µM, first compound 0.03 µM
[45] = second compound 3.16 µM, first compound 0.0949 µM
[46] = second compound 3.16 µM, first compound 0.3 µM
[47] = second compound 10 µM, first compound 0.00949 µM
[48] = second compound 10 µM, first compound 0.03 µM
[49] = second compound 10 µM, first compound 0.0949 µM
[50] = second compound 10 µM, first compound 0.3 µM

For CC1(C)CCC(CN2CCN(c3ccc(C(=O)NS(=O)(=O)c4ccc(NCC5CCOCC5)c([N+](=O)[O-])c4)c(Oc4cnc5[nH]ccc5c4)c3)CC2)=C(c2ccc(Cl)cc2)C1 + NC1CCC(NC2CC2c2ccccc2)CC1, the IC50 (second compound 0.1 µM) was 2140 nM, the IC50 (second compound 0.316 µM) was 2000 nM and the IC50 (second compound 1 µM) was 2090 nM. The IC50 (second compound 3.16 µM) was 2060 nM, the IC50 (second compound 10 µM) was 2010 nM and the viability, T/C [1] was 103%. The viability, T/C [2] was 98.4%, the viability, T/C [3] was 99.3% and the viability, T/C [4] was 100%. The viability, T/C [5] was 24.5%, the viability, T/C [6] was 9.5% and the viability, T/C [7] was 104%. For the same molecule, the viability, T/C [8] was 105%, the viability, T/C [9] was 97% and the viability, T/C [10] was 89.1%. It also gave a viability, T/C [11] of 24.3%, a viability, T/C [12] of 10.5% and a viability, T/C [13] of 92.9%. For the same molecule, the viability, T/C [14] was 104%, the viability, T/C [15] was 102% and the viability, T/C [16] was 98.9%. The viability, T/C [17] was 22.4%, the viability, T/C [18] was 8.48% and the viability, T/C [19] was 115%. It also gave a viability, T/C [20] of 96.2%, a viability, T/C [21] of 103% and a viability, T/C [22] of 101%. The viability, T/C [23] was 19.8%, the viability, T/C [24] was 7.55% and the viability, T/C [25] was 99.2%. For the same molecule, the viability, T/C [26] was 110%, the viability, T/C [27] was 87.2% and the viability, T/C [28] was 90.6%. It also gave a viability, T/C [29] of 23.6% and a viability, T/C [30] of 8%.
With CC1COCCN1c1cc(C2(S(C)(=N)=O)CC2)nc(-c2ccnc3[nH]ccc23)n1 (stereo not given) + NC1CCC(NC2CC2c2ccccc2)CC1 the IC50 (second compound 0.1 µM) was 7480 nM, the IC50 (second compound 0.316 µM) was 6670 nM and the IC50 (second compound 1 µM) was 6720 nM. It also gave an IC50 (second compound 3.16 µM) of 6220 nM, an IC50 (second compound 10 µM) of 5470 nM and a viability, T/C [1] of 115%. It also gave a viability, T/C [2] of 116%, a viability, T/C [3] of 115% and a viability, T/C [4] of 124%. It also gave a viability, T/C [5] of 91.6%, a viability, T/C [6] of 35.9% and a viability, T/C [7] of 119%. For the same molecule, the viability, T/C [8] was 129%, the viability, T/C [9] was 117% and the viability, T/C [10] was 105%. For the same molecule, the viability, T/C [11] was 86.2%, the viability, T/C [12] was 30.7% and the viability, T/C [13] was 118%. For the same molecule, the viability, T/C [14] was 116%, the viability, T/C [15] was 114% and the viability, T/C [16] was 113%. It also gave a viability, T/C [17] of 86.6%, a viability, T/C [18] of 30.7% and a viability, T/C [19] of 116%. The viability, T/C [20] was 130%, the viability, T/C [21] was 126% and the viability, T/C [22] was 110%. It also gave a viability, T/C [23] of 80.6%, a viability, T/C [24] of 28.8% and a viability, T/C [25] of 114%. For the same molecule, the viability, T/C [26] was 116%, the viability, T/C [27] was 113% and the viability, T/C [28] was 101%. The viability, T/C [29] was 73.7% and the viability, T/C [30] was 24.2%.
With CCN(c1cc(-c2ccc(CN3CCOCC3)cc2)cc(C(=O)NCc2c(C)cc(C)[nH]c2=O)c1C)C1CCOCC1 + NC1CCC(NC2CC2c2ccccc2)CC1 the IC50 (second compound 0.1 µM) was > 3000 nM, the IC50 (second compound 0.316 µM) was > 3000 nM and the IC50 (second compound 1 µM) was > 3000 nM. For the same molecule, the IC50 (second compound 3.16 µM) was > 3000 nM, the IC50 (second compound 10 µM) was > 3000 nM and the viability, T/C [31] was 108%. The viability, T/C [32] was 103%, the viability, T/C [33] was 104% and the viability, T/C [34] was 93.8%. It also gave a viability, T/C (second compound 0.1 µM, first compound 0.949 µM) of 85.3%, a viability, T/C (second compound 0.1 µM, first compound 3 µM) of 64% and a viability, T/C [35] of 110%. For the same molecule, the viability, T/C [36] was 117%, the viability, T/C [37] was 102% and the viability, T/C [38] was 93.3%. The viability, T/C (second compound 0.316 µM, first compound 0.949 µM) was 87.1%, the viability, T/C (second compound 0.316 µM, first compound 3 µM) was 65.8% and the viability, T/C [39] was 104%. It also gave a viability, T/C [40] of 111%, a viability, T/C [41] of 102% and a viability, T/C [42] of 91.3%. The viability, T/C (second compound 1 µM, first compound 0.949 µM) was 84.9%, the viability, T/C (second compound 1 µM, first compound 3 µM) was 54.4% and the viability, T/C [43] was 99.8%. The viability, T/C [44] was 109%, the viability, T/C [45] was 106% and the viability, T/C [46] was 108%. It also gave a viability, T/C (second compound 3.16 µM, first compound 0.949 µM) of 86.3%, a viability, T/C (second compound 3.16 µM, first compound 3 µM) of 56.3% and a viability, T/C [47] of 115%. The viability, T/C [48] was 106%, the viability, T/C [49] was 97.4% and the viability, T/C [50] was 97.6%. For the same molecule, the viability, T/C (second compound 10 µM, first compound 0.949 µM) was 79% and the viability, T/C (second compound 10 µM, first compound 3 µM) was 56.8%.
With Nc1ncn(C2CC(O)C(CO)S2)c(=O)n1 (stereo not given) + NC1CCC(NC2CC2c2ccccc2)CC1 the IC50 (second compound 0.1 µM) was > 300 nM, the IC50 (second compound 0.316 µM) was > 300 nM and the IC50 (second compound 1 µM) was > 300 nM. For the same molecule, the IC50 (second compound 3.16 µM) was > 300 nM, the IC50 (second compound 10 µM) was > 300 nM and the viability, T/C (second compound 0.1 µM, first compound 0.000949 µM) was 106%. For the same molecule, the viability, T/C (second compound 0.1 µM, first compound 0.003 µM) was 100%, the viability, T/C [31] was 92.6% and the viability, T/C [32] was 87.9%. It also gave a viability, T/C [33] of 84.5%, a viability, T/C [34] of 70.7% and a viability, T/C (second compound 0.316 µM, first compound 0.000949 µM) of 105%. For the same molecule, the viability, T/C (second compound 0.316 µM, first compound 0.003 µM) was 113%, the viability, T/C [35] was 98.5% and the viability, T/C [36] was 99.2%. For the same molecule, the viability, T/C [37] was 85.7%, the viability, T/C [38] was 67.8% and the viability, T/C (second compound 1 µM, first compound 0.000949 µM) was 109%. The viability, T/C (second compound 1 µM, first compound 0.003 µM) was 117%, the viability, T/C [39] was 99.2% and the viability, T/C [40] was 93.4%. The viability, T/C [41] was 85.2%, the viability, T/C [42] was 64.1% and the viability, T/C (second compound 3.16 µM, first compound 0.000949 µM) was 119%. The viability, T/C (second compound 3.16 µM, first compound 0.003 µM) was 113%, the viability, T/C [43] was 105% and the viability, T/C [44] was 91.5%. The viability, T/C [45] was 81.3%, the viability, T/C [46] was 63.2% and the viability, T/C (second compound 10 µM, first compound 0.000949 µM) was 118%. The viability, T/C (second compound 10 µM, first compound 0.003 µM) was 108%, the viability, T/C [47] was 98.8% and the viability, T/C [48] was 96.9%. For the same molecule, the viability, T/C [49] was 81.1% and the viability, T/C [50] was 57%.
